The nature of data set [1]: Cytotoxicity against human MT4 cells assessed as reduction in cell viability by MTT assay. It counts as toxicity, cell-based.
Data set [2] is described as follows: Selectivity index, ratio of CC50 for human MT4 cells to EC50 for wild-type HIV-1 IIIB infected in human MT4 cells. Conditions: read-out: Ratio CC50/EC50. It counts as toxicity, cell-based.
Data set [3] relates to Human immunodeficiency virus 1. The experiment in a line: Antiviral activity against HIV-1 harboring RT L100I mutant infected in human MT4 cells assessed as protection against virus-induced cytopathic effect by MTT assay. It counts as functional, organism-based. Conditions: Human immunodeficiency virus 1, MT4. For orientation: Cytopathic effects are the visible damage that an infection or toxin causes in cultured cells.

Data set [4] deals with Human immunodeficiency virus 1. The experiment in a line: Antiviral activity against HIV-1 harboring RT K103N mutant infected in human MT4 cells assessed as protection against virus-induced cytopathic effect by MTT assay. It counts as functional, organism-based. Particulars: Human immunodeficiency virus 1, MT4.
Data set [5] deals with Human immunodeficiency virus 1. Briefly: Antiviral activity against HIV-1 harboring RT Y181C mutant infected in human MT4 cells assessed as protection against virus-induced cytopathic effect by MTT assay. It counts as functional, organism-based. Conditions: Human immunodeficiency virus 1, MT4.
Data set [6] relates to Human immunodeficiency virus 1. The experiment in a line: Antiviral activity against HIV-1 harboring RT Y188L mutant infected in human MT4 cells assessed as protection against virus-induced cytopathic effect by MTT assay. It counts as functional, organism-based. Conditions: Human immunodeficiency virus 1, MT4.
For data set [7], the system named is Human immunodeficiency virus 1. Briefly: Antiviral activity against HIV-1 harboring RT E138K mutant infected in human MT4 cells assessed as protection against virus-induced cytopathic effect by MTT assay. It counts as functional, organism-based. Particulars: Human immunodeficiency virus 1, MT4.
Data set [8] has as its system Human immunodeficiency virus 1. The experiment in a line: Antiviral activity against HIV-1 harboring RT F227L/V106A mutant infected in human MT4 cells assessed as protection against virus-induced cytopathic effect by MTT assay. Particulars: Human immunodeficiency virus 1, MT4. It counts as functional, organism-based.
The test system of data set [9] is Human immunodeficiency virus 1. Briefly: Antiviral activity against HIV-1 harboring RT RES056 mutant infected in human MT4 cells assessed as protection against virus-induced cytopathic effect by MTT assay. It counts as functional, organism-based. Conditions: Human immunodeficiency virus 1, MT4.
For data set [10], the system named is Human immunodeficiency virus 1. Briefly: Antiviral activity against wild-type HIV-1 IIIB infected in human MT4 cells assessed as protection against virus-induced cytopathic effect by MTT assay. Conditions: Human immunodeficiency virus 1, IIIB. It counts as functional, organism-based.
In data set [11] the target is Human immunodeficiency virus type 1 reverse transcriptase (Human immunodeficiency virus 1, UniProt Q72547). Briefly: Inhibition of wild-type HIV-1 reverse transcriptase incubated for 1 hr in presence of biotin-dUTP by ELISA. On the technique in general: ELISA stands for enzyme-linked immunosorbent assay.

With `Cc1ccnc2c1NC(=O)c1cccnc1N2C1CC1` [NEVIRAPINE], the half-maximal cytotoxic concentration (CC50) (usually the concentration giving 50% cytotoxicity) in [1] is more than 15 µM. In [2], the selectivity ratio is more than 73. Moreover, the EC50 (usually the midpoint of the concentration-response curve) in data set [3] was 3.13 µM; in [4], 8.25 µM; in data set [5] it was 9.21 µM; in [6], more than 15 µM; in [7], 0.363 µM; in data set [8], more than 15 µM. In [9], the EC50 was more than 15 µM.
Take `Cc1cc(C#N)cc(C)c1Oc1cc(-c2cncnc2)nc(NC2CCN(Cc3ccc(C(N)=O)cc3)CC2)n1`: the EC50 in data set [10] worked out at 0.00411 µM; in data set [3] it was 0.0768 µM; in data set [4] it was 0.0102 µM; in [5], 0.0246 µM; in [6] it was 0.0353 µM; in data set [7] it was 0.029 µM. Further, the values for the EC50 in data set [8] and in data set [9] were 0.279 µM and 1.06 µM, respectively. In addition, the CC50 in data set [1] stood at 41.6 µM. In addition, the selectivity ratio in data set [2] turned out to be 10100. Further, the IC50 (as a rule, the midpoint of a concentration-inhibition curve) in [11] came out at 0.601 µM.
Take `Cc1cc(C#N)cc(C)c1Oc1cc(-c2ccccc2)nc(NC2CCN(Cc3ccc(S(C)(=O)=O)cc3)CC2)n1`: the EC50 in [10] was 0.00468 µM; in data set [3], 0.0114 µM; in [4], 0.00682 µM; in data set [5] it was 0.0277 µM; in data set [6], 0.038 µM; in [7] it was 0.0325 µM. In addition, the EC50 in data set [8] was determined as 0.026 µM; in data set [9] it was 0.229 µM. Moreover, in [1], the CC50 is 12.5 µM. Further, the selectivity ratio in data set [2] stood at 2670. Moreover, in data set [11], the 50% inhibitory concentration (IC50) is 0.231 µM.
With `Cc1cc(C#N)cc(C)c1Oc1cc(-c2cccnc2)nc(NC2CCN(Cc3ccc(S(N)(=O)=O)cc3)CC2)n1`, the 50% effective concentration (EC50) in data set [10] was determined as 0.00404 µM; in data set [3], 0.0312 µM; in data set [4], 0.0131 µM; in [5], 0.026 µM; in [6], 0.0365 µM; in [7] it was 0.0211 µM. For the same compound, the EC50 worked out at 0.105 µM in [8] and 0.494 µM in [9]. Also, in [1], the CC50 was 18.2 µM. In data set [2], the selectivity ratio was 4500. Besides, in data set [11], the IC50 came to 0.461 µM.
As for `Cc1cc(C#N)cc(C)c1Oc1cc(-c2ccsc2)nc(NC2CCN(Cc3ccc(S(N)(=O)=O)cc3)CC2)n1`, the EC50 in data set [10] was 0.00445 µM; in [3], 0.00983 µM; in [4], 0.00461 µM; in [5], 0.0371 µM; in data set [6], 0.0464 µM; in [7] it was 0.0424 µM. The EC50 came out at 0.0616 µM in data set [8] and 0.311 µM in [9]. The CC50 in [1] is 14.8 µM. Besides, in [2], the selectivity ratio was 3330. In addition, in [11], the IC50 turned out to be 0.236 µM.
As to `Cc1cc(C#N)cc(C)c1Oc1cc(-c2cccnc2)nc(NC2CCN(Cc3ccc(C(N)=O)cc3)CC2)n1`, the EC50 in [10] worked out at 0.00361 µM; in [3], 0.0356 µM; in data set [4], 0.0112 µM; in data set [5], 0.0153 µM; in data set [6], 0.0376 µM; in data set [7], 0.0096 µM. Also, the EC50 in [8] came out at 0.106 µM; in data set [9] it was 1.42 µM. In addition, the CC50 in data set [1] came out at 17.2 µM. Also, in data set [2], the selectivity ratio is 4760. Moreover, in [11], the IC50 is 0.428 µM.
On to `Cc1cc(C#N)cc(C)c1Oc1cc(-c2cccnc2)nc(NC2CCN(Cc3ccc(S(C)(=O)=O)cc3)CC2)n1`, for which the EC50 in data set [10] was 0.00412 µM; in data set [3], 0.0585 µM; in [4] it was 0.00901 µM; in data set [5], 0.0219 µM; in [6] it was 0.0366 µM; in data set [7], 0.0261 µM. Further, the EC50 in data set [8] came to 0.147 µM; in data set [9] it was 0.799 µM. Besides, the 50% cytotoxic concentration (CC50) in data set [1] came to 20.6 µM. The selectivity ratio in data set [2] came out at 5000. The IC50 in [11] was determined as 0.607 µM.
As to `Cc1cc(C#N)cc(C)c1Oc1cc(-c2cncnc2)nc(NC2CCN(Cc3ccc(S(N)(=O)=O)cc3)CC2)n1`, the EC50 in data set [10] came out at 0.00429 µM; in data set [3], 0.0398 µM; in data set [4], 0.013 µM; in data set [5], 0.026 µM; in data set [6] it was 0.055 µM; in data set [7], 0.0345 µM. For the same compound, the results for the EC50 in [8] and in data set [9] were 0.0634 µM and 0.916 µM, respectively. Further, the CC50 in data set [1] stood at 109 µM. The selectivity ratio in data set [2] worked out at 25400. In addition, the IC50 in data set [11] was 0.733 µM.
Consider `Cc1cc(C#N)cc(C)c1Oc1cc(-c2ccncc2)nc(NC2CCN(Cc3ccc(S(C)(=O)=O)cc3)CC2)n1`, for which the EC50 in data set [10] is 0.00407 µM; in [3], 0.0583 µM; in [4] it was 0.0101 µM; in [5], 0.0509 µM; in [6], 0.0615 µM; in data set [7], 0.0178 µM. Besides, the values for the EC50 in data set [8] and in data set [9] were 0.107 µM and 2.35 µM, respectively. Also, the CC50 in [1] came out at 26.3 µM. In data set [2], the selectivity ratio turned out to be 6460. Besides, in data set [11], the IC50 was found to be 0.52 µM.
As for `Cc1cc(C#N)cc(C)c1Oc1cc(-c2ccncc2)nc(NC2CCN(Cc3ccc(S(N)(=O)=O)cc3)CC2)n1`, the EC50 in data set [10] turned out to be 0.00362 µM; in data set [3], 0.0997 µM; in data set [4], 0.0106 µM; in data set [5], 0.0434 µM; in data set [6], 0.0586 µM; in data set [7], 0.0148 µM. Besides, the EC50 worked out at 0.0726 µM in [8] and 1.21 µM in [9]. Moreover, the CC50 in [1] came out at 18.4 µM. Besides, in data set [2], the selectivity ratio was found to be 5080. Besides, the IC50 in [11] amounted to 0.507 µM.
Take `Cc1cc(C#N)cc(C)c1Oc1cc(-c2cccs2)nc(NC2CCN(Cc3ccc(C(N)=O)cc3)CC2)n1`: the EC50 amounted to 0.00448 µM in [10]; 0.0202 µM in data set [3]; 0.00668 µM in data set [4]; 0.0305 µM in data set [5]; 0.0444 µM in data set [6]; 0.0361 µM in data set [7]. Also, the EC50 in [8] is 0.0634 µM; in data set [9] it was 0.399 µM. Also, the CC50 in [1] came out at 19.3 µM. Moreover, in data set [2], the selectivity ratio is 4310. The IC50 in [11] was 0.299 µM.

Values taken from ChEMBL document CHEMBL5614387, “Discovery of 2,4,6-trisubstituted pyrimidine derivatives as novel potent HIV-1 NNRTIs by exploiting the tolerant region II of the NNIBP” (Eur J Med Chem, 2024).
